The source of these data is a melting point compilation (Tetko et al.; mined from patent text by program, amines drawn as free bases though some values may be those of a salt).

Turning to `Cn1nnnc1C(F)(F)C(O)(Cn1cncn1)c1ccc(F)cc1F` (stereo unspecified), the melting point (usually the temperature, or range, at which the solid turns liquid) was 160 to 165 °C. `CCc1nc2c(N)nc3cc(CCC#N)ccc3c2n1CC1CCOCC1` gave a melting point of 273 to 275 °C.

As to `Clc1ccc2ncc(Cl)n2n1`, the melting point was 120 to 121 °C. The value for `COc1ccc(Cl)c(Oc2c(Cl)nc(C)nc2Cl)c1` was 125 to 130 °C. The compound `C#CCOCc1c(C)nc2c(OCc3ccccc3Cl)cccn12` came in with a melting point of 95 to 95.5 °C. The value for `CC(=O)Nc1ccc(-c2cc(-c3nc4ccccc4c(=O)n3-c3cccc(C)c3)sc2N2CCOCC2)cc1` was > 275 °C; that for `N#Cc1ccc(C2NCCS2)cc1` (stereo unspecified) was 57 to 58 °C. Under `CC(CNC(=O)c1c2ccccc2nc2c1[nH]c1ccccc12)N(C)C` (stereo unspecified) stands 188 to 189 °C.

The compound `COC1CN(S(=O)(=O)c2ccc(Cl)c(C(=O)O)c2)CCC1O` (stereo unspecified) had a melting point of 170 to 174 °C. The value for `O=C(O)c1cccc(-c2ccc(Cl)c(C(=O)NCC34CC5CC(CC(C5)C3)C4)c2)c1` was 255 to 257 °C.

Consider `COC(=O)c1cc(I)cc(Cl)c1OC`, for which the melting point is 41 to 43 °C.

Turning to `CCC(C)(C)c1ccc(OCC(=O)Nc2cccc(C(=O)Nc3[nH]n(-c4c(Cl)cc(Cl)cc4Cl)c(=O)c3Br)c2)c(C(C)(C)CC)c1`, the melting point lay within 139 to 141 °C. The value for `COc1cc(N)c(Cl)cc1C(=O)N[C@H]1CCN(CCNc2nccnc2C)C[C@H]1OC` (relative stereo) was 170 °C. The value for `CC(C)(C)c1cc(OCCCC#N)cc(C(C)(C)C)c1O` was 67 to 69 °C. Under `COc1ccc(S(N)(=O)=O)cc1C(=O)NCC1CCCN1CC1=CCCCC1` (stereo unspecified) stands 167 °C; under `Cc1nc(OCCN2CCOCC2)c([N+](=O)[O-])c(N2CCc3ccccc3CC2)n1`, 143 to 145 °C. In the case of `CN(C)C=C(C#N)C(=O)c1cc(F)c(F)c(F)c1F`, the melting point lay in the range of 149 to 151 °C. For `COc1ccc2[nH]c3cc(-c4cccc([N+](=O)[O-])c4)c4c(c3c2c1)C(=O)NC4=O`, the melting point was > 340 °C. Compound `c1ccc(CN2CC3OC(C4OCCO4)(C2)c2ccccc23)cc1` (stereo unspecified) registered a melting point of 78 to 79.5 °C. Under `CCCOc1ccccc1CN1N=C(CCC)C(=CNc2ccccc2CC)C1=O` stands 75.2 °C; under `N#CC(c1ccccc1)(c1ccccc1)C1CN(C2CCCCC2)C1`, 111 to 114 °C; under `CC(O)c1ccc(Cl)c(S(N)(=O)=O)c1` (stereo unspecified), 144 to 146 °C. Under `COc1ccccc1C(=O)Nc1ccccc1C(c1ccc(O)cc1)c1ccc(O)cc1` stands 258 °C; under `CCCCn1c(C)nc(SC)nc1=O`, 62 to 63 °C. Take `O=C(NCCO)c1cccc(-c2ncc3ccn(Cc4ccc(Cl)cc4Cl)c3n2)c1`: the melting point lay in the range of 194 to 195 °C. The value for `Cc1cccc(-c2nc3ccc(OCCN4CCN(C)CC4)cc3n2Cc2ccccc2)c1` was 91 °C.

Turning to `CC(=NNc1ccc(C2=NNC(=O)CC2)cc1)c1cccnc1`, the melting point was 236 to 237 °C.

`Clc1ccc(C2(CBr)OCC(c3ccccc3)O2)cc1` (stereo unspecified) came in with a melting point of 60 °C. `O=C(C#Cc1ccc(C(F)(F)F)cc1Cl)Nc1ccc(OCCn2cnnc2)cc1`: the melting point was in the range of 223 to 227 °C. The value for `COc1ccc(Nc2ccc(Nc3ncnc4cc(-c5cccs5)sc34)cc2)cc1` was 231 to 240 °C; that for `COC(=O)CCCc1ccc(S(=O)(=O)Nc2ccccc2)cn1` was 79 to 80 °C. Compound `Cc1ccc(-c2ccc3c(c2)C=C(C(=O)N2CCC(NC(=O)C(F)(F)F)CC2)CCO3)cc1` showed a melting point of 189 to 192 °C.

Compound `CCC(CC)N(Cc1ccc(C(=O)OC)cc1)S(=O)(=O)c1ccc(F)cc1` came in with a melting point of 78 to 80 °C.

`Cc1c2c(nn1C)N(c1ccc(Cl)cc1Cl)CCC2` showed a melting point of 66.6 to 76.6 °C. For `CC#CCOc1ccc(SC(C(=O)NO)c2ccccc2)cc1` (stereo unspecified), the melting point was 151 °C. The value for `CC(Cn1cnnn1)n1nnc2cc3c(=O)n(C4CC4)nnc3cc2c1=O` (stereo unspecified) was 233 to 235 °C. Under `CCCCCN(CC(=O)OCC)C(=O)C(CCC(=O)O)CS(=O)(=O)c1ccc2ccccc2c1` (stereo unspecified) stands 77 to 80 °C; under `NS(=O)(=O)c1cc(Br)ccc1F`, 153 to 154 °C. For `COc1ccc(Nc2nc(Cl)nc(Cl)n2)cc1Cl`, the melting point was found to be 165 °C.

In the case of `CCOC(=O)c1c(OCc2ccc(-c3ccccc3-c3nnn(C(c4ccccc4)(c4ccccc4)c4ccccc4)n3)cc2)cc(C)nc1C`, the melting point was 136 to 138 °C. The value for `CCCn1c(COCC)nc2c(N)nc3cc(OC4CCNCC4)ccc3c21` was 202 to 204 °C.

Take `COc1ccc2c(c1)Sc1c(cc(OC)c(OC(C)=O)c1Br)N2C(=O)OC(C)OC(C)=O` (stereo unspecified): the melting point was 134 to 135 °C. The value for `CCOc1ccc(C(=O)N2CCc3cc(S(=O)(=O)N4CC(c5ccccc5)NC4=O)ccc32)cc1` (stereo unspecified) was 216 to 218 °C; that for `CC(=O)Nc1ccc(-c2cc(C(=O)c3ccncc3)sc2N2CCOCC2)cc1` was 149 °C; that for `CC(=O)Nc1cccc(S(=O)(=O)c2cc(O)c(O)cc2C)c1` was 220 to 222 °C. The value for `CC1(C)Oc2ccc(C#N)cc2C(Nc2ccc(=O)[nH]c2)C1O` (stereo unspecified) was 285 to 287 °C. The value for `CC(C)n1nc(-c2c(-c3ccccc3)nn3ccc(OCC(=O)NC4CCC(O)CC4)cc23)ccc1=O` (stereo unspecified) was 146 to 148 °C; that for `Cc1ccc2ccccc2c1N(C(=O)CO)C1CCOC1=O` (stereo unspecified) was 191 to 195 °C. Compound `N#CCc1cccc2oc(Br)c(-c3ccccc3)c12` displayed a melting point of 131 to 133 °C. `CCOC1=CC(=O)C(C(=O)OC)C(c2ccc(C)cc2)C1` (stereo unspecified) yielded a melting point of 124 to 127 °C. Under `COC(=O)c1ccc2c(c1)c(=O)n(Cc1ccccc1)c(=O)n2C` stands 179 °C. Under `Cc1ccc(C2COc3cc(O)ccc3C2c2ccc(OCCN3CCCCC3)cc2)cc1` (stereo unspecified) stands 146 to 148 °C; under `Cc1ccc(F)cc1-c1noc(CCC#Cc2ccccn2)n1`, 90 to 91 °C; under `COc1c(C2CCN(CCCCNC(=O)c3sc(-c4ccc(C(F)(F)F)cc4)nc3CO)CC2)ccc2c1CCCC2`, 179 to 180 °C. `Cc1ccc2c([nH]c3c(C(=O)O)cccc32)c1Cl` gave a melting point of 266 °C. Under `CCn1nc(Cc2ccc([N+](=O)[O-])cc2)oc1=O` stands 108 to 109 °C.

In the case of `COc1cc(N(C(C)=O)c2c(C#N)cnc3ccsc23)c(Cl)cc1Cl`, the melting point fell in the range of 202 to 204 °C.

Take `Oc1cc(N=Nc2ccccn2)ccc1-c1ccc(-c2ccc(N=Nc3ccccn3)cc2O)o1`: the melting point was in the range of 164 to 165 °C.

On to `CCN(CCc1c[nH]c2ccc(F)cc12)C1COc2c(F)ccc(C(=O)NC)c2C1` (stereo unspecified), for which the melting point stood at 125 °C. The value for `CCCC1=NN(c2ccccn2)C(=O)C1=CNc1ccccc1CC` was 151 °C; that for `Cc1coc(N(CCCC(=O)O)C(=O)C(C)C)n1` was 81 to 82 °C.
